In brackets after ≈: the same amount, converted by molar mass. One block for each compound: values may come before it.
Experiments:
Experiment in all cases: ≥ marks a high value that may be exact or a test limit, other limits are often not marked, values filed in µg/mL are converted to µM
[1] = system: Salmonella enterica subsp. enterica serovar Typhimurium C77-31
[2] = system: Bacillus cereus CMCC 6303
[3] = system: Listeria monocytogenes CMCC 54004
[4] = system: Salmonella enterica subsp. enterica serovar Typhimurium ATCC 14028
[5] = system: Cronobacter sakazakii ATCC 29544
[6] = system: Salmonella enterica subsp. enterica serovar Typhi CMCC 50071
[7] = system: Staphylococcus aureus ATCC 25923
[8] = system: Staphylococcus aureus CMCC 26074
[9] = system: Salmonella enterica subsp. enterica CMCC 47020
[10] = system: Escherichia coli UB1005
[11] = system: Salmonella enterica subsp. enterica serovar Pullorum C79-13
[12] = system: Escherichia coli DSM 1116
[13] = system: Staphylococcus xylosus DSM 20287
[14] = system: Bacillus subtilis DSM 347
[15] = system: Franconibacter helveticus DSM 18390
[16] = system: Batrachochytrium dendrobatidis
[17] = system: Escherichia coli IFO 14237
[18] = system: Pseudomonas aeruginosa IFO 12582
[19] = system: Staphylococcus aureus IFO 12732
[20] = system: Bacillus subtilis IFO 3037
[21] = system: Pseudomonas aeruginosa ATCC 15692
[22] = system: Staphylococcus aureus Newman
[23] = system: Klebsiella pneumoniae KAY 2026
[24] = system: Escherichia coli DH5alpha
[25] = system: Streptococcus mutans JM11
[26] = system: Staphylococcus epidermidis ATCC 35984
[27] = system: Bacillus megaterium Bm11
[28] = system: Staphylococcus aureus 710A
[29] = system: Escherichia coli ML-35
[30] = system: Pseudomonas aeruginosa ATCC 27853
[31] = system: Staphylococcus aureus ATCC 9144
[32] = system: Escherichia coli ATCC 25922
[33] = system: Aureobasidium pullulans
[34] = system: Corynebacterium glutamicum ATCC 13032
[35] = system: Candida albicans ATCC 10231
[36] = system: Escherichia coli KpC+001812446
[37] = system: Staphylococcus aureus MR
[38] = system: Klebsiella pneumoniae KpC+001825971
[39] = system: Escherichia coli KpC+002101123
[40] = system: Klebsiella pneumoniae ATCC 13883

MIC [1]: ≥ 256 µM
MIC [2]: ≥ 128 µM
MIC [3]: ≥ 128 µM
MIC [4]: 128 µM (≈ 213 µg/mL)
MIC [5]: ≥ 256 µM
MIC [6]: ≥ 128 µM
MIC [7]: > 256 µM
MIC [8]: ≥ 256 µM
MIC [9]: ≥ 256 µM
MIC [10]: ≥ 256 µM
MIC [11]: ≥ 256 µM
SMILES: CC[C@H](C)[C@H](NC(=O)[C@H](CCCN=C(N)N)NC(=O)[C@H](CCCCN)NC(=O)[C@H](Cc1c[nH]c2ccccc12)NC(=O)[C@@H](N)CCCN=C(N)N)C(=O)N[C@H](C(=O)N[C@H](C(=O)N[C@H](C(=O)N[C@@H](CCCN=C(N)N)C(=O)N[C@@H](CCCCN)C(=O)N[C@@H](CCCN=C(N)N)C(=O)N[C@@H](CCCN=C(N)N)C(N)=O)[C@@H](C)CC)C(C)C)C(C)C [RWKRIVVIRKRR]

MIC [12]: 2.16 µM (≈ 5.65 µg/mL)
MIC [13]: 0.764 µM (≈ 2 µg/mL)
MIC [14]: 1.08 µM (≈ 2.83 µg/mL)
MIC [15]: 1.08 µM (≈ 2.83 µg/mL)
SMILES: CC[C@H](C)[C@H](N)C(=O)N[C@@H](C)C(=O)NCC(=O)N[C@@H](CCCCN)C(=O)N[C@H](C(=O)N[C@@H](C)C(=O)N[C@@H](CCCCN)C(=O)N[C@H](C(=O)N[C@@H](C)C(=O)NCC(=O)N[C@@H](CCCCN)C(=O)N[C@H](C(=O)N[C@@H](C)C(=O)N[C@@H](CCCCN)C(=O)N[C@H](C(=O)N[C@@H](C)C(=O)NCC(=O)N[C@@H](CCCCN)C(=O)N[C@H](C(=O)N[C@@H](C)C(=O)N[C@@H](CCCCN)C(=O)N[C@H](C(=O)N[C@@H](C)C(=O)NCC(=O)N[C@@H](CCCCN)C(=O)N[C@H](C(=O)N[C@@H](C)C(N)=O)[C@@H](C)CC)[C@@H](C)CC)[C@@H](C)CC)[C@@H](C)CC)[C@@H](C)CC)[C@@H](C)CC)[C@@H](C)CC [IAGKIAKIAGKIAKIAGKIAKIAGKIA]

MIC [16]: 28.6 µM (≈ 40 µg/mL)
SMILES: CC[C@H](C)[C@H](NC(=O)[C@@H](NC(=O)[C@@H]1CCCN1C(=O)[C@H](CC(C)C)NC(=O)[C@@H](N)Cc1ccccc1)[C@@H](C)CC)C(=O)N[C@@H](C)C(=O)N[C@@H](CO)C(=O)N[C@@H](CC(C)C)C(=O)N[C@@H](CC(C)C)C(=O)NCC(=O)N[C@@H](CCCCN)C(=O)N[C@@H](CC(C)C)C(=O)N[C@@H](CC(C)C)C(N)=O [FLPIIASLLGKLL]

MIC [17]: 6.25 µM (≈ 25.5 µg/mL)
MIC [18]: 25 µM (≈ 102 µg/mL)
MIC [19]: 6.25 µM (≈ 25.5 µg/mL)
MIC [20]: ≥ 50 µM
SMILES: CC[C@H](C)[C@H](NC(=O)[C@H](CC(N)=O)NC(=O)[C@H](CC(C)C)NC(=O)[C@H](CCCCN)NC(=O)[C@@H](NC(=O)[C@@H](NC(=O)[C@H](CC(=O)O)NC(=O)[C@@H](N)Cc1ccccc1)[C@@H](C)CC)[C@@H](C)O)C(=O)N[C@@H](CCCCN)C(=O)N[C@@H](CCCCN)C(=O)N[C@@H](CC(C)C)C(=O)N[C@H](C(=O)N[C@@H](CCCCN)C(=O)N[C@@H](C)C(=O)N[C@H](C(=O)N[C@H]1CSSC[C@@H](C(=O)N[C@@H](CCCCN)C(=O)N[C@H](C(=O)N[C@@H](CC(C)C)C(=O)N[C@@H](Cc2ccccc2)C(=O)N[C@@H](CC(=O)O)C(=O)N[C@@H](CCCCN)C(=O)N[C@@H](CCCCN)C(=O)N[C@@H](CCCCN)C(=O)N[C@@H](CCC(N)=O)C(=O)N[C@@H](CCC(=O)O)C(=O)O)C(C)C)NC(=O)[C@H](CCSC)NC(=O)[C@H](CO)NC(=O)[C@H](C)NC(=O)CNC(=O)[C@H](CCCCN)NC(=O)[C@H](CO)NC(=O)[C@H]([C@@H](C)CC)NC(=O)[C@H](C(C)C)NC(=O)[C@H](CCCCN)NC1=O)[C@@H](C)O)[C@@H](C)O [FDITKLNIKKLTKATCKVISKGASMCKVLFDKKKQE]

MIC [21]: 14.4 µM (≈ 21.5 µg/mL)
MIC [22]: 5.62 µM (≈ 8.39 µg/mL)
MIC [23]: 2.98 µM (≈ 4.44 µg/mL)
MIC [24]: 5.47 µM (≈ 8.16 µg/mL)
MIC [25]: 2.86 µM (≈ 4.26 µg/mL)
MIC [26]: 5.11 µM (≈ 7.62 µg/mL)
SMILES: CC[C@H](C)[C@H](NC(=O)[C@@H](N)Cc1ccccc1)C(=O)N[C@@H](CCCN=C(N)N)C(=O)N[C@@H](CCCCN)C(=O)N[C@@H](Cc1ccccc1)C(=O)N[C@@H](CC(C)C)C(=O)N[C@@H](CCCCN)C(=O)N[C@@H](CCCCN)C(=O)N[C@@H](Cc1c[nH]c2ccccc12)C(=O)N[C@@H](CC(C)C)C(=O)N[C@@H](CC(C)C)C(N)=O [FIRKFLKKWLL]

MIC [27]: ≥ 32 µM
MIC [4]: > 32 µM
MIC [28]: ≥ 32 µM
MIC [29]: 4 µM (≈ 8.11 µg/mL)
MIC [30]: 16 µM (≈ 32.5 µg/mL)
SMILES: CC[C@H](C)[C@H](NC(=O)[C@H](CCCCN)NC(=O)[C@H](CCCCN)NC(=O)[C@H](CC(C)C)NC(=O)[C@H](CC(C)C)NC(=O)CN)C(=O)NCC(=O)N[C@@H](CCCCN)C(=O)N[C@@H](CCCCN)C(=O)N[C@@H](C)C(=O)N[C@@H](CCCCN)C(=O)N[C@@H](CCCCN)C(=O)N[C@@H](C)C(=O)NCC(=O)N[C@@H](CCCCN)C(=O)N[C@@H](CCCCN)C(=O)N[C@@H](CC(C)C)C(=O)NCC(=O)N[C@@H](Cc1ccc(O)cc1)C(N)=O [GLLKKIGKKAKKAGKKLGY]

MIC [31]: 12.5 µM (≈ 19.3 µg/mL)
MIC [32]: 3.1 µM (≈ 4.78 µg/mL)
MIC [33]: 12.5 µM (≈ 19.3 µg/mL)
MIC [34]: 0.4 µM (≈ 0.617 µg/mL)
MIC [35]: 6.3 µM (≈ 9.71 µg/mL)
MIC [30]: 1.6 µM (≈ 2.47 µg/mL)
SMILES: CC(C)[C@H](NC(=O)[C@H](CCCCN)NC(=O)[C@H](C)NC(=O)[C@@H](NC(=O)[C@@H](NC(=O)[C@H](CCCN=C(N)N)NC(=O)[C@H](CCCN=C(N)N)NC(=O)[C@H](Cc1c[nH]c2ccccc12)NC(=O)[C@H](Cc1c[nH]c2ccccc12)NC(=O)CN)[C@@H](C)O)C(C)C)C(=O)N[C@@H](CCCN=C(N)N)C(=O)N[C@@H](CCCCN)C(N)=O [GWWRRTVAKVRK]

MIC [32]: 34 µM (≈ 63.5 µg/mL)
MIC [36]: ≥ 34 µM
MIC [37]: 17 µM (≈ 31.7 µg/mL)
MIC [7]: 9 µM (≈ 16.8 µg/mL)
MIC [38]: ≥ 34 µM
MIC [39]: 9 µM (≈ 16.8 µg/mL)
MIC [40]: ≥ 34 µM
MIC [30]: > 34 µM
SMILES: CC[C@H](C)[C@H](NC(=O)[C@@H](NC(=O)[C@H](CO)NC(=O)[C@H](C)NC(=O)[C@@H](NC(=O)[C@H](CCCCN)NC(=O)[C@H](CCCCN)NC(=O)[C@@H](NC(=O)[C@@H](NC(=O)[C@H](CC(=O)O)NC(=O)[C@H](Cc1ccccc1)NC(=O)[C@H](CC(C)C)NC(=O)CNC(=O)[C@H](Cc1cnc[nH]1)NC(=O)CNC(=O)CN)C(C)C)[C@@H](C)CC)C(C)C)C(C)C)C(=O)NCC(=O)NCC(=O)N[C@@H](CC(C)C)C(N)=O [GGHGLFDVIKKVASVIGGL]

— DBAASP
